Like-named read-outs stand apart in the source and are kept apart here.
What was measured:
GPR35 [1] = target: T1, GPR35 (Homo sapiens, UniProt Q9HC97); test: Ca2+ mobilization assay (Fluo-4) in HEK-GPR35-Gqo5 cells; assay type: cell-based; conditions: for Ca2+ moblization (HEK-GPR35-Gqo5): HEK293 cells co-expressing GPR35 and Gqo5, Fluo-4, compounds 10 μM; for Ca2+ mobilization signal in cells co-expressing GPR35 and Gqo5: engineered HEK293, 10 μM
T1 construct: myc; expressed in transfected cells; host or cells: HEK293, transient co-transfection (Lipofectamine LTX)
T1 sequence (Q9HC97 whole entry): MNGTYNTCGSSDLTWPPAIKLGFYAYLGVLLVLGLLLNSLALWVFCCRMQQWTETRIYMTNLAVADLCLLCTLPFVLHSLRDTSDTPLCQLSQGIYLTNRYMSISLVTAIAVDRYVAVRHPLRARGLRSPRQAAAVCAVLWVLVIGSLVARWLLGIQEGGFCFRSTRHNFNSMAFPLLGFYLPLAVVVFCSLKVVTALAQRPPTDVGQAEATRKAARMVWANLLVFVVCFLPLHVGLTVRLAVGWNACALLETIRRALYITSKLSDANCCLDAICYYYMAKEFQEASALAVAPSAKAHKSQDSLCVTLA

hERG channel [2] = target: hERG channel (Homo sapiens, UniProt Q12809); test: Automated patch clamp recording of hERG tail current (IonWorks); conditions: hERG tail current ratio post/pre-compound, 50 uM
Sequence of hERG channel (Homo sapiens, UniProt Q12809) (Q12809 whole entry): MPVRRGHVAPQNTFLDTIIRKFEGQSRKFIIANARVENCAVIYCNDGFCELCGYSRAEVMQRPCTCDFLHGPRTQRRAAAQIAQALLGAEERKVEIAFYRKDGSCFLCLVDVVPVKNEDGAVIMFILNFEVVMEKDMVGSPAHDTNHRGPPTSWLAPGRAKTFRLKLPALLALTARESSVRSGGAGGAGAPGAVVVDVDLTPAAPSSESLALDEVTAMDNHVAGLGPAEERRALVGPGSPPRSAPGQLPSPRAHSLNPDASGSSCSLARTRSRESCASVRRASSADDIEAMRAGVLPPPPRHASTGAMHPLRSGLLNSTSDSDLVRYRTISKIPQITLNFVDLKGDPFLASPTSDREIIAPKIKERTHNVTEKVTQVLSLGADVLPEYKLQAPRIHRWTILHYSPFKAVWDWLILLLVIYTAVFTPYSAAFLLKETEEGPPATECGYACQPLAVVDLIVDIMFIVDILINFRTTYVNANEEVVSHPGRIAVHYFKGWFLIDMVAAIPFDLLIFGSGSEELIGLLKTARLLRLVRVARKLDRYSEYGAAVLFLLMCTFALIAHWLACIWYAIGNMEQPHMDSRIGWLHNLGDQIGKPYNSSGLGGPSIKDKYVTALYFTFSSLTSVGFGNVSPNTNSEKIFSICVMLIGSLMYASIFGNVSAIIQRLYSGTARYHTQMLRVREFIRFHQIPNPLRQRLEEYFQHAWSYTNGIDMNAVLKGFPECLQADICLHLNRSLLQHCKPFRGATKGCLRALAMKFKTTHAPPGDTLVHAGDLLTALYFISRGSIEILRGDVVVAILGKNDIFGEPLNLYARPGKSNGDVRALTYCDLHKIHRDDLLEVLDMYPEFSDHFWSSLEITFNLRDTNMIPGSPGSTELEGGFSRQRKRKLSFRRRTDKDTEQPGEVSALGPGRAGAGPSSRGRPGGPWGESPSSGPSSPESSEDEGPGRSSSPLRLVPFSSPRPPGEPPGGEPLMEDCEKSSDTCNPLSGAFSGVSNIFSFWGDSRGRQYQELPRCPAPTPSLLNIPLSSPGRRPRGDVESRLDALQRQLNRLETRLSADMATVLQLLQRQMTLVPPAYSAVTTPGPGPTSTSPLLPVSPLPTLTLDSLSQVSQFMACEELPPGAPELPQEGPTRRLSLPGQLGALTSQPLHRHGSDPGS

GPR35 [3] = test: DMR desensitization / antagonism mode against GPR35 agonist-induced DMR in HT29 cells; assay type: cell-based, human
hERG channel [4] = test: Cross-desensitization DMR assay against hERG activator mallotoxin-induced DMR in HT29 cells; conditions: HT29 cells pretreated with compound, then hERG activator mallotoxin
[5] = HT29 cells pretreated with compound, then GPR35 agonist

Row | SMILES | Ca2+ moblization (HEK-GPR35-Gqo5) (GPR35 [1]) | Electrophysiology (HEK-hERG) (hERG channel [2]) | Desenstization to GPR35 agonist (GPR35 [3]; [5]) | Desenstization to hERG activator (hERG channel [4]) | Ca2+ mobilization signal in cells co-expressing GPR35 and Gqo5 (GPR35 [1]) | Desenstization to GPR35 agonist (GPR35 [3])
1 | CC1=C(CC(=O)O)c2cc(F)ccc2/C1=C\c1ccc([S+](C)[O-])cc1 (stereo not drawn) [Sulindac] | inactive | blocker | desenstized | – | – | –
2 | CC1=C(C#N)C(=C(C#N)C#N)OC12CCCCC2 [Compound 03, 2-dicyanomethylene-3-cyano-4-methyl-5-spiro-cyclohexyl-2,5-dihydrofuran] | inactive | inactive | desenstized | – | – | –
3 | O=Cc1ccc(-c2ccc(CO)s2)s1 [Compound 28, 5-hydroxymethyl-5′-formyl-2,2′-bithiophene] | inactive | inactive | desenstized | – | – | –
4 | O=C1OC(OC(=O)c2cccnc2Nc2cccc(C(F)(F)F)c2)c2ccccc21 (stereo not drawn) [Talniflumate] | inactive | inactive | desenstized | – | – | –
5 | CCOC(=O)c1cc2sc3cc(C(=O)OCC)sc3c2s1 [Compound 23, diethyl dithieno[3,2-b:2′,3′-d]thiophene-2,6-dicarboxylate] | inactive | inactive | desenstized | – | – | –
6 | N#C/C(=C\c1ccc(O)c(O)c1)C(N)=O [Tyrphostin 46] | – | inactive | desenstized | inactive | – | –
7 | CC1=C(C#N)C(=C(C#N)C#N)OC1(C)c1ccc(Cl)c(Cl)c1 (stereo not drawn) [Compound 07, 2-dicyanomethylene-3-cyano-4,5-dimethyl-5-[3′,4′-dichlorophenyl]-2,5-dihydrofuran] | active | inactive | desenstized | – | – | –
8 | Cc1c(Nc2ncccc2C(=O)O)cccc1C(F)(F)F [Flunixin] | active | activator | desenstized | – | active | –
9 | CN(CCO)c1ccc(C=Cc2ccc(C(=O)[O-])s2)cc1.[Li+] [Compound 26, 5-{2-[4-(N-methyl, N-2-hydroxyethyl-amino)phenyl]ethenyl}-thiophene-2-formate lithium] | active | inactive | desenstized | – | – | –
10 | O=C(O)c1cc2sccc2s1 [Compound 11, thieno[3,2-b]thiophene-2-carboxylic acid] | inactive | inactive | desenstized | – | – | –
11 | OCc1ccc(-c2cccs2)s1 [Compound 27, 2,2′-bithiophene-5-methanol] | inactive | blocker | inactive | – | – | –
12 | Cc1csc2c1sc1cc(C(=O)O)sc12 [Compound 22, 5-methyl-dithieno[3,2-b:2′,3′-d]thiophene-2-carboxylic acid] | inactive | inactive | desenstized | – | – | –
13 | CC1=C(C#N)C(=C(C#N)C(N)=C(C#N)C#N)OC1(C)C [Compound 08, 2-cyano-2-(1-amino-2,2-dicyanovinyl)methylene-3-cyano-4,5,5-trimethyl-2,5-dihydrofuran] | active | inactive | desenstized | – | – | –
14 | O=C(O)c1cc(-c2ccc(F)cc2F)ccc1O [Diflunisal] | active | activator | desenstized | – | active | –
15 | CCCCCCc1csc2cc(C(=O)O)sc12 [Compound 14, 6-hexyl-thieno[3,2-b]thiophene-2-carboxylic acid] | active | blocker | desenstized | – | – | –
16 | COC(=O)c1ccc(C=Cc2ccc(N(C)CCO)cc2)s1 [Compound 25, methyl-5-{2-[4-(N-methyl,N-2-hydroxyethyl-amino)phenyl]ethenyl}-thiophene-2-formate] | active | inactive | desenstized | – | – | –
17 | CC1=C(C#N)C(=C(C#N)C#N)OC1(C)c1c(F)c(F)c(F)c(F)c1F (stereo not drawn) [Compound 09, 2-dicyanomethylene-3-cyano-4,5-dimethyl-5-[2′3′4′5′6′-pentafluorophenyl]-2,5-dihydrofuran] | active | inactive | desenstized | – | – | –
18 | O=C(O)c1cccnc1Nc1cccc(C(F)(F)F)c1 [Niflumic acid] | active | activator | desenstized | – | active | –

Row | SMILES | Ca2+ moblization (HEK-GPR35-Gqo5) (GPR35 [1]) | Electrophysiology (HEK-hERG) (hERG channel [2]) | Desenstization to GPR35 agonist (GPR35 [3]; [5]) | Desenstization to hERG activator (hERG channel [4]) | Ca2+ mobilization signal in cells co-expressing GPR35 and Gqo5 (GPR35 [1]) | Desenstization to GPR35 agonist (GPR35 [3])
19 | Cc1c(Cl)cccc1Nc1ccccc1C(=O)O [Tolfenamic acid] | active | blocker | desenstized | – | active | –
20 | Cc1c(C(=O)O)sc2ccsc12 [Compound 12, 3-methyl-thieno[3,2-b]thiophene-2-carboxylic acid] | active | inactive | desenstized | – | – | –
21 | CC1=C(C#N)C(=C(C#N)C#N)OC1(c1ccccc1)C(F)(F)F (stereo not drawn) [Compound 04, 2-dicyanomethylene-3-cyano-4-methyl-5-phenyl-5-perfluoromethyl-2,5-dihydrofuran] | active | activator | desenstized | – | – | –
22 | CCCCc1ccc(C2(C)OC(=C(C#N)C#N)C(C#N)=C2C)cc1 (stereo not drawn) [Compound 01, 2-dicyanomethylene-3-cyano-4,5-dimethyl-5-[4′-n-butylphenyl]-2,5-dihydrofuran] | inactive | inactive | desenstized | – | – | –
23 | OCCN(CCO)c1ccc(C=Cc2cccs2)cc1 [Compound 24, N,N-bis(2-hydroxyethyl)-4-[2-(thiophene-2-yl)vinyl]aniline] | inactive | inactive | inactive | – | – | –
24 | O=Cc1ccc(-c2cccs2)s1 [Compound 30, 2,2′-bithiophene-5-carboxaldehyde] | inactive | blocker | desenstized | – | – | –
25 | CC1=C(C#N)C(=C(C#N)C#N)OC1(C)c1ccc(Cl)c(Cl)c1Cl (stereo not drawn) [Compound 06, 2-dicyanomethylene-3-cyano-4,5-dimethyl-5-[2′,3′,4′-trichlorophenyl]-2,5-dihydrofuran] | inactive | inactive | desenstized | – | – | –
26 | CC1=C(C#N)C(=C(C#N)C#N)OC1(C)C [Compound 10, 2-dicyanomethylene-3-cyano-4,5,5-trimethyl-2,5-dihydrofuran] | active | inactive | desenstized | – | – | –
27 | CC1=C(C#N)C(=C(C#N)C#N)OC1(C)c1ccc(F)cc1F (stereo not drawn) [Compound 02, 2-dicyanomethylene-3-cyano-4,5-dimethyl-5-[2′,4′-difluorophenyl]-2,5-dihydrofuran] | active | inactive | desenstized | – | – | –
28 | CCCCCCCCCCCc1c(C(=O)O)sc2c(Br)csc12 [Compound 16, 3-n-undecyl-6-bromo-thieno[3,2-b]thiophene-2-carboxylic acid] | – | inactive | – | – | – | desenstized
29 | O=C(O)c1cc(/N=N/c2ccc(S(=O)(=O)Nc3ccccn3)cc2)ccc1O [Sulfasalazine] | inactive | inactive | desenstized | – | – | –
30 | CC1=C(C#N)C(=C(C#N)C#N)OC12c1ccccc1-c1ccccc12 [Compound 05, 2-dicyanomethylene-3-cyano-4-methyl-5-spiro-fluorenylidine-2,5-dihydrofuran] | inactive | inactive | desenstized | – | – | –
31 | CCCCCCCCc1c(C(=O)O)sc2c(Br)csc12 [Compound 21, 3-n-octyl-6-bromo-thieno[3,2-b]thiophene-2-carboxylic acid] | active | activator | desenstized | – | – | –
32 | O=C(O)c1cc(=O)c2ccccc2[nH]1 [Kynurenic acid] | inactive | inactive | desenstized | – | – | –
33 | CCCCCCCCCCCCCCCc1c(C(=O)O)sc2c(Br)csc12 [Compound 19, 3-n-pentadecyl-6-bromo-thieno[3,2-b]thiophene-2-carboxylic acid] | – | activator | desenstized | – | – | –
34 | Cc1ccc(Cl)c(Nc2ccccc2C(=O)O)c1Cl [Meclofenamate] | inactive | – | desenstized | partially desenstized | – | –
35 | O=C(O)c1cc([N+](=O)[O-])ccc1NCCCc1ccccc1 [NPPB] | active | activator | desenstized | – | active | –

Reference: US20120022116A1, “COMPOSITIONS AND METHODS FOR THE TREATMENT OF PATHOLOGICAL CONDITION(S) RELATED TO GPR35 AND/OR GPR35-HERG COMPLEX” (priority 2010, published 2012)
